For series [1], the system named is orthotopic HCA-1 tumors. The series can be described thus: Orthotopic HCA-1 HCC model. Format: in vivo, C3H mice. The note with it: treatment alone; for Effect on tumor growth: 15 mg/kg/d SC minipump 14 d. On the procedure:
(§1) In vivo hepatocellular carcinoma treatment studies […]
(§2) mouse PD-1 (200 µg/mouse; BioXcell, BE0146). The therapeutic efficacy and the changes in immune cells were analyzed after two weeks of treatment. The tumor volume was calculated with the following formula: volume = width × length × height/2. […]
Hematoxylin and Eosin staining
Lung tissue was cut into small pieces and fixed in 4% PFA (in PBS) overnight before being embedded in paraffin wax. The sections were then stained with hematoxylin and eosin (H&E) and observed with an inverted microscope (IX83, Olympus, Japan).
HCA-1 tumor-bearing mice were anesthetized, perfused via intracardiac injection with PBS and then sacrificed. Tumor tissues were collected and harvested in enzyme-containing DMEM cell culture medium (1.5 mg/mL of collagenase type 1A and hyaluronidase; Sigma).
The tissues were cut and ground into smaller pieces and then digested for 1 h at 37 °C to form suspensions of single tumor cells. The suspensions were filtered through a 70-µm cell strainer (Corning, Manassas, VA), and the cells were then incubated with rat anti-mouse CD16/CD32 mAbs to block Fc receptors. After washing 3 times and resuspending in cold flow buffer (1% BSA, 0.1% NaN3 in PBS), the single-cell suspensions were incubated with monoclonal anti-mouse F4/80-PE (eBiosciences, San Diego, CA), 7-AAD, CD3e-APC, CD8a-PE-Cy7, CD45-FITC, CD4-PE (BD Biosciences, East Rutherford, NJ), CD86-APC-

The target of series [2] is T1, hERG (human K+ channel) (Homo sapiens, UniProt Q12809).
T1 construct: host or cells: CHO (hERG-CHO)
The series can be described thus: hERG patch-clamp assay (hERG-CHO, automated patch-clamp). Format: cell-based. The source says:
page 16: Table: List of genes examined by real-time PCR and the primer sequences used. Genes Forward primers Reverse primers Slug [NT] Fn1 [NT] Cdh2 […] Foxc2 [NT] Zeb1 [NT] Zeb2 [NT] Twist1 [NT] Cdh1 [NT] Mta3 [NT] Cldn3 [NT] Cldn5 [NT] β-actin […] [NT] Off-target standard assays Methods employed in this study have been adapted from the scientific literature to maximize reliability and reproducibility. Reference standards were run as an integral part of each assay to ensure the validity of the results obtained. Radioligand binding Assays were performed under conditions described in the accompanying "Methods" section of this report by Eurofins Panlabs, Inc (Taipei, Taiwan, ROC). hERG patch-clamp assay BPRCX807 were tested in the hERG (hERG-CHO, automated patch-clamp) assay and determined at Eurofins Panlabs (Missouri, USA). The experiment was accepted in accordance with Eurofins validation Standard Operating Procedure. Selectivity Screening of various chemokine receptors The results were performed by Eurofins DiscoverX (Fremont, California, USA). The S15

Series [3] in a line: Metabolic stability in liver microsomes. The series is classed as in vitro ADME. The note with it: mouse, rat, dog, and human. An excerpt: Figure S4. The metabolic stabilities of BPRCX807 in liver microsomes. BPRCX807 is […]
In general terms: Microsomes from liver hold many membrane-bound enzymes, among them those of drug oxidation.

Series [4] has as its system orthotopic JHH-7 tumors. The series can be described thus: Orthotopic JHH-7 HCC model. The series is classed as in vivo, nude mice. The note with it: treatment alone, 15 mg/kg/d SC minipump 14 d. On the procedure:
as §1, §2

A short description of series [5]: Pharmacokinetics after SC administration. The note with it: 6 mg/kg. On the procedure:
Pharmacokinetics and toxicological studies
Male C57BL/6 mice, each weighing 23.4–25.4 g, were quarantined for 1 week before drug treatment. Compounds dissolved in 100% saline were individually given to mice (n = 3) subcutaneously (6 mg/kg; nonfasted mice). Blood samples were collected via cardiac puncture at defined time points (0 (immediately before dosing), 0.03, 0.08, 0.25, 0.5, 1, 2, and 4 h after dosing) and then stored at −80 °C. The volume of the dosing solution given was 100 µL for each mouse. The plasma samples were analyzed by liquid chromatography– tandem mass spectrometry (LC–MS/MS), and the data were calculated by a standard noncompartmental method using the Kinetica software program (InnaPhase). […]

For series [6] the following is noted: SC, mice, n = 3.
The subject of series [7] is JHH-7 cells. The series can be described thus: Western blot of phospho-ERK and phospho-AKT after CXCL12 stimulation. Format: cell-based, human. The protocol: (§3) Western blotting was conducted by following standard procedures. HCA-1 or JHH-7 cells (10^5 cells per well) were seeded in 12-well plates (Costar, IL), incubated for 12 h and […]
(§4) containing (100 ng/mL) serum-free medium. After 24 h, the cells were lysed in RIPA buffer on ice for 30 min, and samples were collected and loaded with 4× Laemmli Sample buffer (Bio-Rad, Hercules, CA). The samples were separated on a 10% SDS-PAGE gels and transferred to PVDF membranes. After blocking with skim milk for 1 h, the membranes were incubated at 4°C overnight with primary antibodies against p -AKT, AKT, p-ERK, ERK (Cell Signaling, Danvers, MA) or β-actin (Sigma-Aldrich, St. Louis, MO) before incubation with HRP-conjugated secondary antibodies (Antibodies Inc., Davis, CA) for 1 h. […]
(§5) Total RNA was extracted from HCA-1 cells using the RNeasy Mini Kit (Qiagen, CA, USA). cDNAs were synthesized using the High-Capicity cDNA Reverse Transcription Kit […]
(§6) Biosystems, CA, USA) on a QPCR System. The comparative threshold cycle method was used to calculate fold change in gene expression, which was normalized to β-actin as a […]

In series [8] the test system is HCA-1 cells. The series is described as above. Format: cell-based, murine. On the procedure:
as §3, §4, §5, §6

In series [9] the target is CXCR4 (Homo sapiens, UniProt P61073). Set-up: expressed in transfected cells; host or cells: HEK293T. Conditions: screening hit; read-out: IC50 (binding affinity toward CXCR4 receptors); cited from earlier work.
Setting [10] is: male, C57BL/6, mouse, in vivo, sc.

The values below come from PMC8020795 (Proceedings of the National Academy of Sciences of the …, 2021).

Where only a bound is given, the exact number is not on record here.

T1 sequence (Q12809 whole entry): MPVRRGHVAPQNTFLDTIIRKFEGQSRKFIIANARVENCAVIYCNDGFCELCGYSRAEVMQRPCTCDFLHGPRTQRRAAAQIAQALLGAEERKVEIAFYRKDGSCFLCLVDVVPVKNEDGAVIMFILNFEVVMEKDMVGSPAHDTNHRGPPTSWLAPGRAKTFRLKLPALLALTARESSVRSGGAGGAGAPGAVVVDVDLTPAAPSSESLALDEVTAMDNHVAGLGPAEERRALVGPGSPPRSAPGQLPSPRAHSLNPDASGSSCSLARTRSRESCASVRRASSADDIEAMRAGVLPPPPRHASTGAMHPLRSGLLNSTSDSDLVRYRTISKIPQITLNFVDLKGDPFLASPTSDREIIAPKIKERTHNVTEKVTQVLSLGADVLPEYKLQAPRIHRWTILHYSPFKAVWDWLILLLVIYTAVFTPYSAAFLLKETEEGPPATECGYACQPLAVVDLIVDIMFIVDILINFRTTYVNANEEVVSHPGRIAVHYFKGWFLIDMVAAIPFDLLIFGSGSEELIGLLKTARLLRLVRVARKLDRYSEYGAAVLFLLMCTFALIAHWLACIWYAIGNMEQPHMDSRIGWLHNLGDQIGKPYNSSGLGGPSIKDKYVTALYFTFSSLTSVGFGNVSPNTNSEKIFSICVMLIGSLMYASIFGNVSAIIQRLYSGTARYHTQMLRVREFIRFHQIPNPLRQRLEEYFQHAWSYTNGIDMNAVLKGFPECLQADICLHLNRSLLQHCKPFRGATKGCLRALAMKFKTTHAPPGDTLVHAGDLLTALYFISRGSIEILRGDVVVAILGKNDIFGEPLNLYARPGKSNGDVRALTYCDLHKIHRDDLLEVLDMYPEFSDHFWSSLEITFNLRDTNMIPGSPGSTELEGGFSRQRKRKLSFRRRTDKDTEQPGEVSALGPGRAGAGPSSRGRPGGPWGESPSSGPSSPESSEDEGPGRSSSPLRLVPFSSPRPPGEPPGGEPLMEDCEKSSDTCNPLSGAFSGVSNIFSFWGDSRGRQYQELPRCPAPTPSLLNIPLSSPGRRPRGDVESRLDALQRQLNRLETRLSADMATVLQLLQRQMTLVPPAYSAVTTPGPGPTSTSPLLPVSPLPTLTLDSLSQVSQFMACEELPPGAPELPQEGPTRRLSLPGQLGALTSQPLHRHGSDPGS
CXCR4, sequence (P61073 whole entry): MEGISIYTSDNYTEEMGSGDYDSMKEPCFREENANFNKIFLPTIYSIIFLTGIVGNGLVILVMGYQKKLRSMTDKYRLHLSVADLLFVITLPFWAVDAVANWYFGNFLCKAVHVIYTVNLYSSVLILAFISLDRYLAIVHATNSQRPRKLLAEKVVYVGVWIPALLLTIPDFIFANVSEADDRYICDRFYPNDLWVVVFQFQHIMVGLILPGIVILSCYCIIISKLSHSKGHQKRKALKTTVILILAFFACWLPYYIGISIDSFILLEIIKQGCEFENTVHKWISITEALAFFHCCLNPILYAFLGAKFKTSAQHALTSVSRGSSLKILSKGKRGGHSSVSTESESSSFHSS

In the case of `CNC(=O)c1cc(Oc2ccc(NC(=O)Nc3ccc(Cl)c(C(F)(F)F)c3)cc2)ccn1` [sorafenib, reference compound], the “F4/80+ TAMs infiltration into tumor (flow cytometry)” value in [1] is listed as “substantially increased”. Besides, in [1] (day 24), the “Intratumoral mean vessel density (MVD, CD31+ staining)” value was “significantly decrease intratumoral MVD” and the “Lung metastasis (number of lung nodules)” value is recorded as “barely reduced”.
`c1cc(CN2CCCNCCNCCCNCC2)ccc1CN1CCCNCCNCCCNCC1` [AMD3100, reference compound] yielded an IC50 in series [2] of more than 100 µM. Further, in series [3], the “Metabolic stability in liver microsomes” value is listed as “Stable”. In addition, the “Effect on tumor growth” value in series [4] and in [1] was “no significant effect on tumor growth” in each case. In addition, the “Lung metastasis (number of lung nodules)” value in series [1] (day 24) is “reduced”. Besides, the “AUC0–4 h” value in series [5] (SC, mice, n = 3) is given as 7,152 ± 135 ng/mL·h. In addition, the Cmax in series [5] (setting [10]) is 6200 ng/mL. In [5] (setting [10]), this compound had a half-life of 60 min. Moreover, the Maximum tolerated dose in [6] worked out at 15 mg/kg.
For the compound `NCCCCN(Cc1nc2ccccc2[nH]1)[C@H]1CCCc2cccnc21` [AMD11070, reference compound], the “CXCL12-mediated cell signaling (phospho-ERK, phospho-AKT)” value in series [7] and in [8] was “moderately inhibited” in each case.
On to `Cc1cc(NC2CCN(C(=O)CCNCC(=O)O)CC2)nc(NCc2cn(CCCNCCCNC3CCCCC3)nn2)n1` [BPRCX714, reference compound], for which the “Effect on tumor growth” value in [4] and in series [1] was “no significant effect on tumor growth” each time.
With `CCN(CC)CCCC(C)Nc1cc(/C=C/c2ccc([N+](=O)[O-])cc2)nc2cc(OC)ccc12` (centres unmarked) [CSV18742], in [9], the IC50 was 2130 ± 110 nM.

As usually defined, the IC50 is the concentration that gives 50% inhibition. One may read the Cmax as the highest concentration seen after dosing. By half-life is commonly meant the time needed for the level to fall by half in the phase considered.
